PubChem BioAssay (NCI)
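Compound exposure: 48 hours, 5 concentrations, 96-well plates. Abbreviation: GI50, concentration required for 50% inhibition of growth. TGI: total growth inhibition.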

Tests used:
Test in all cases: growth of human tumour cells (NCI), 48 h
NCI-H522 lung = system: NCI-H522 lung
MOLT-4 leukemia = system: MOLT-4 leukemia
SF-295 CNS = system: SF-295 CNS
M14 melanoma = system: M14 melanoma
UO-31 renal = system: UO-31 renal
ACHN renal = system: ACHN renal
SNB-19 CNS = system: SNB-19 CNS
OVCAR-5 ovarian = system: OVCAR-5 ovarian
HT29 colon = system: HT29 colon
A549 NSCLC = system: A549 NSCLC
EKVX NSCLC = system: EKVX NSCLC
A498 renal = system: A498 renal
SF-268 CNS = system: SF-268 CNS
SK-MEL-5 melanoma = system: SK-MEL-5 melanoma
SK-MEL-28 melanoma = system: SK-MEL-28 melanoma
MDA-MB-435 = system: MDA-MB-435
COLO 205 colon = system: COLO 205 colon
OVCAR-8 ovarian = system: OVCAR-8 ovarian
K-562 leukemia = system: K-562 leukemia
U251 CNS = system: U251 CNS
NCI/ADR-RES ovarian = system: NCI/ADR-RES ovarian
786-0 renal = system: 786-0 renal
NCI-H226 lung = system: NCI-H226 lung
NCI-H460 lung = system: NCI-H460 lung
HCT-116 colon = system: HCT-116 colon
BT-549 breast = system: BT-549 breast
MCF7 breast = system: MCF7 breast
HOP-62 NSCLC = system: HOP-62 NSCLC
OVCAR-3 ovarian = system: OVCAR-3 ovarian
SN12C renal = system: SN12C renal
SF-539 CNS = system: SF-539 CNS
HOP-92 NSCLC = system: HOP-92 NSCLC
SK-MEL-2 melanoma = system: SK-MEL-2 melanoma
LOX IMVI melanoma = system: LOX IMVI melanoma
RXF 393 renal = system: RXF 393 renal
RPMI-8226 leukemia = system: RPMI-8226 leukemia
DU-145 prostate = system: DU-145 prostate
CAKI-1 renal = system: CAKI-1 renal
SR leukemia = system: SR leukemia
SK-OV-3 ovarian = system: SK-OV-3 ovarian
MDA-MB-231 breast = system: MDA-MB-231 breast
HCC-2998 colon = system: HCC-2998 colon
SW-620 colon = system: SW-620 colon
T-47D breast = system: T-47D breast
MALME-3M melanoma = system: MALME-3M melanoma
OVCAR-4 ovarian = system: OVCAR-4 ovarian
UACC-257 melanoma = system: UACC-257 melanoma
NCI-H23 lung = system: NCI-H23 lung
TK-10 renal = system: TK-10 renal
PC-3 prostate = system: PC-3 prostate
UACC-62 melanoma = system: UACC-62 melanoma
KM12 colon = system: KM12 colon
HS 578T breast = system: HS 578T breast
HCT-15 colon = system: HCT-15 colon

O=C1c2ccccc2-c2c1c1c(O)cccc1n2Cc1ccccc1
GI50 (NCI-H522 lung): 40 µM | TGI (NCI-H522 lung): > 100 µM | GI50 (MOLT-4 leukemia): > 100 µM | TGI (MOLT-4 leukemia): > 100 µM | GI50 (SF-295 CNS): 6.12 µM | TGI (SF-295 CNS): 18.4 µM | GI50 (M14 melanoma): 26.7 µM | TGI (M14 melanoma): > 100 µM | GI50 (UO-31 renal): 21.8 µM | TGI (UO-31 renal): > 100 µM | GI50 (ACHN renal): 6.9 µM | TGI (ACHN renal): 23.8 µM | GI50 (SNB-19 CNS): 14.4 µM | TGI (SNB-19 CNS): 82.5 µM | GI50 (OVCAR-5 ovarian): 16.4 µM | TGI (OVCAR-5 ovarian): 51.2 µM | GI50 (HT29 colon): 38.2 µM | TGI (HT29 colon): > 100 µM | GI50 (A549 NSCLC): 16.8 µM | TGI (A549 NSCLC): > 100 µM | GI50 (EKVX NSCLC): 16.5 µM | TGI (EKVX NSCLC): 69.2 µM | GI50 (A498 renal): 6.24 µM | TGI (A498 renal): 25 µM | GI50 (SF-268 CNS): 6.58 µM | TGI (SF-268 CNS): 37.9 µM | GI50 (SK-MEL-5 melanoma): 5.62 µM | TGI (SK-MEL-5 melanoma): 24.7 µM | GI50 (SK-MEL-28 melanoma): 20.8 µM | TGI (SK-MEL-28 melanoma): 62.4 µM | GI50 (MDA-MB-435): 19.1 µM | TGI (MDA-MB-435): > 100 µM | GI50 (COLO 205 colon): 47.4 µM | TGI (COLO 205 colon): > 100 µM | GI50 (OVCAR-8 ovarian): 28.6 µM | TGI (OVCAR-8 ovarian): > 100 µM | GI50 (K-562 leukemia): 22.8 µM | TGI (K-562 leukemia): > 100 µM | GI50 (U251 CNS): 15.2 µM | TGI (U251 CNS): 67.1 µM | GI50 (NCI/ADR-RES ovarian): 6.5 µM | TGI (NCI/ADR-RES ovarian): 33.6 µM | GI50 (786-0 renal): 15.6 µM | TGI (786-0 renal): 31.9 µM | GI50 (NCI-H226 lung): > 100 µM | TGI (NCI-H226 lung): > 100 µM | GI50 (NCI-H460 lung): 10.3 µM | TGI (NCI-H460 lung): 45.6 µM | GI50 (HCT-116 colon): 11.8 µM | TGI (HCT-116 colon): > 100 µM | GI50 (BT-549 breast): 20.5 µM | TGI (BT-549 breast): 56.1 µM | GI50 (MCF7 breast): 6.75 µM | TGI (MCF7 breast): 30.8 µM | GI50 (HOP-62 NSCLC): 12.1 µM | TGI (HOP-62 NSCLC): 29.8 µM | GI50 (OVCAR-3 ovarian): 4.17 µM | TGI (OVCAR-3 ovarian): 17.3 µM | GI50 (SN12C renal): 14.1 µM | TGI (SN12C renal): > 100 µM | GI50 (SF-539 CNS): 14.2 µM | TGI (SF-539 CNS): 35.3 µM | GI50 (HOP-92 NSCLC): 4.22 µM | TGI (HOP-92 NSCLC): 19.8 µM | GI50 (SK-MEL-2 melanoma): 39.7 µM | TGI (SK-MEL-2 melanoma): > 100 µM | GI50 (LOX IMVI melanoma): 10.1 µM | TGI (LOX IMVI melanoma): > 100 µM | GI50 (RXF 393 renal): 11.5 µM | TGI (RXF 393 renal): 44.8 µM | GI50 (RPMI-8226 leukemia): 30 µM | TGI (RPMI-8226 leukemia): > 100 µM | GI50 (DU-145 prostate): 11.9 µM | TGI (DU-145 prostate): 64.7 µM | GI50 (CAKI-1 renal): 7.15 µM | TGI (CAKI-1 renal): 20.8 µM | GI50 (SR leukemia): 30.5 µM | TGI (SR leukemia): > 100 µM | GI50 (SK-OV-3 ovarian): 14.5 µM | TGI (SK-OV-3 ovarian): 41.7 µM | GI50 (MDA-MB-231 breast): > 100 µM | TGI (MDA-MB-231 breast): > 100 µM | GI50 (HCC-2998 colon): 12.7 µM | TGI (HCC-2998 colon): 39.1 µM | GI50 (SW-620 colon): 38 µM | TGI (SW-620 colon): > 100 µM | GI50 (T-47D breast): 7.8 µM | TGI (T-47D breast): 90.2 µM | GI50 (MALME-3M melanoma): 2.76 µM | TGI (MALME-3M melanoma): 8.65 µM | GI50 (OVCAR-4 ovarian): 7.14 µM | TGI (OVCAR-4 ovarian): 43.9 µM | GI50 (UACC-257 melanoma): 17.7 µM | TGI (UACC-257 melanoma): 68.5 µM | GI50 (NCI-H23 lung): 5.67 µM | TGI (NCI-H23 lung): 29.7 µM | GI50 (TK-10 renal): 8.74 µM | TGI (TK-10 renal): 22.5 µM | GI50 (PC-3 prostate): 12.3 µM | TGI (PC-3 prostate): 32.6 µM | GI50 (UACC-62 melanoma): 7.35 µM | TGI (UACC-62 melanoma): 27.2 µM | GI50 (KM12 colon): 15.8 µM | TGI (KM12 colon): 84.9 µM | GI50 (HS 578T breast): 10.3 µM | TGI (HS 578T breast): 32.8 µM | GI50 (HCT-15 colon): 27.5 µM | TGI (HCT-15 colon): > 100 µM
